Results reported in patent US20240208907A1, “GPR52 MODULATORS AND METHODS OF USE” (Neurocrine Biosciences, Inc., priority 2021, published 2024).
Where a name gives a salt, the structure may show the parent alone.

Target: T1, recombinant human GPR52 (Homo sapiens, UniProt Q9Y2T5)
T1 construct: expressed in transfected cells
Experiment: GPR52 activity: TR-FRET cAMP assay (LANCE Ultra cAMP Kit)
Assay type: cell-based
Settings: Flp-In-CHO cells stably expressing recombinant human GPR52; cAMP production, normalized to positive control
Procedure: TR-FRET cAMP assays were performed using commercially available assay kits (LANCE™ Ultra cAMP Kit). Controls and compounds were solubilized in DMSO using ½ log dilution to generate duplicate 10-point dose response curves in 384-well polypropylene compound plates. Sixty nanoliters of the diluted compounds were transferred into 384-well NBS assay plates and further diluted to 1× with the addition of 2000 cells per well. Flp-In™-CHO cells that stably express recombinant human GPR52.
Cells were harvested with cell stripper and resuspended in Stimulation Buffer (5 mM HEPES, 0.1% bovine serum albumin (BSA), 0.5 mM IBMX, pH 7.4). After thirty minutes incubation at room temperature, detection reagents were added to each well. Plates were then incubated for 30 minutes at room temperature. The LANCE™ Ultra cAMP assay uses time-resolved fluorescence resonance energy transfer (TR-FRET) to detect cAMP production; this signal was quantified using a Pherastar multi-mode plate reader.
Dose-response curves were generated from the fluorescence counts normalized to the positive control. E EC50 values were obtained using a nonlinear regression curve-fitting program.

T1 sequence (Q9Y2T5 whole entry): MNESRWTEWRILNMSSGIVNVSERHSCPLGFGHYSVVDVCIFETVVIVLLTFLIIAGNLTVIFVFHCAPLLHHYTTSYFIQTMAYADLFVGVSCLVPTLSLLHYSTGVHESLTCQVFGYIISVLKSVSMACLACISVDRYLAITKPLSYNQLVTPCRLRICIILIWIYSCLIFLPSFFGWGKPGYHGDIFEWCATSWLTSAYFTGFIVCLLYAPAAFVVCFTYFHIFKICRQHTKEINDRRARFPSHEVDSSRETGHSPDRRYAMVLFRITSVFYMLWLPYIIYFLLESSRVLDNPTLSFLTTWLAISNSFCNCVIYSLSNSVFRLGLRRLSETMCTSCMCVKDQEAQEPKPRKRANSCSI

SMILES	EC50 [µM]
N#Cc1cc(Cc2ccnc(-c3ccc(C(N)=O)cc3)c2)cc(F)c1F [Compound 30, 4-{4-[(3-cyano-4,5-difluorophenyl)methyl]pyridin-2-yl}benzamide hydrochloride]	0.101 to 1
COc1ccc(Cc2ccnc(-c3ccc(C(N)=O)cc3)c2)cc1F [Compound 20, 4-{4-[(3-fluoro-4-methoxyphenyl)methyl]pyridin-2-yl}benzamide]	0.101 to 1
N#Cc1cc(Cc2ccnc(-c3cccc(C(N)=O)c3)c2)cc(F)c1F [Compound 38, 3-{4-[(3-cyano-4,5-difluorophenyl)methyl]pyridin-2-yl}benzamide]	0.101 to 1
Cc1cc(F)cc(Cc2ccnc(-c3ccc(C(N)=O)cc3)c2)c1 [Compound 28, 4-{4-[(3-fluoro-5-methylphenyl)methyl]pyridin-2-yl}benzamide]	0.101 to 1
N#Cc1cc(F)cc(Cc2ccnc(-c3ccc(C(N)=O)cc3)c2)c1 [Compound 40, 4-{4-[(3-cyano-5-fluorophenyl)methyl]pyridin-2-yl}benzamide]	> 1
NC(=O)c1ccc(-c2cc(Cc3cccc(OC(F)(F)F)c3)ccn2)cc1 [Compound 26, 4-(4-{[3-(trifluoromethoxy)phenyl]methyl}pyridin-2-yl)benzamide]	0.101 to 1
Cc1cc(F)cc(Cc2ccnc(-c3cccc(C(N)=O)c3)c2)c1 [Compound 22, 3-{4-[(3-fluoro-5-methylphenyl)methyl]pyridin-2-yl}benzamide]	0.101 to 1
Cc1cc(-c2cc(C(O)c3cccc(C(F)(F)F)c3)ccn2)ccc1C(N)=O (centres unmarked) [Compound 43, 4-(4-{hydroxy [3-(trifluoromethyl)phenyl]methyl}pyridin-2-yl)-2-methylbenzamide]	> 1
CS(=O)(=O)c1cccc(Cc2ccnc(-c3ccc(C(N)=O)cc3)c2)c1 [Compound 27, 4-{4-[(3-methanesulfonylphenyl)methyl]pyridin-2-yl}benzamide]	0.101 to 1
N#Cc1cc(Cc2ccnc(-c3ccc(C(N)=O)c(F)c3)c2)cc(F)c1F [Compound 24, 4-{4-[(3-cyano-4,5-difluorophenyl)methyl]pyridin-2-yl}-2-fluorobenzamide]	0.101 to 1
COc1ccc(Cc2ccnc(-c3cccc(C(N)=O)c3)c2)cc1F [Compound 29, 3-{4-[(3-fluoro-4-methoxyphenyl)methyl]pyridin-2-yl}benzamide]	0.101 to 1
N#Cc1cc(Cc2ccnc(-c3cccc(CC(N)=O)c3)c2)cc(F)c1F [Compound 33, 2-(3-{4-[(3-cyano-4,5-difluorophenyl)methyl]pyridin-2-yl}phenyl)acetamide]	0.101 to 1
Cc1cc(-c2cc(Cc3cccc(S(C)(=O)=O)c3)c(F)cn2)ccc1C(N)=O [Compound 31, 4-{5-fluoro-4-[(3-methanesulfonylphenyl)methyl]pyridin-2-yl}-2-methylbenzamide hydrochloride]	0.025 to 0.1
NC(=O)c1ccc(-c2cc(Cc3cc(F)cc(Cl)c3)ccn2)cc1 [Compound 21, 4-{4-[(3-chloro-5-fluorophenyl)methyl]pyridin-2-yl}benzamide]	0.101 to 1
NC(=O)c1ccc(-c2cc(Cc3ccc(F)c(C(F)(F)F)c3)ccn2)cc1 [Compound 23, 4-(4-{[4-fluoro-3-(trifluoromethyl)phenyl]methyl}pyridin-2-yl)benzamide]	0.101 to 1
Cc1cc(Cc2ccnc(-c3ccc(C(N)=O)cc3)c2)ccc1F [Compound 10, 4-{4-[(4-fluoro-3-methylphenyl)methyl]pyridin-2-yl}benzamide]	0.025 to 0.1
NC(=O)c1cccc(-c2cc(Cc3cc(F)cc(Cl)c3)ccn2)c1 [Compound 25, 3-{4-[(3-chloro-5-fluorophenyl)methyl]pyridin-2-yl}benzamide]	0.101 to 1
Cc1cc(-c2cc(Cc3ccc(F)c(C#N)c3)ccn2)ccc1C(N)=O [Compound 8, 4-{4-[(3-cyano-4-fluorophenyl)methyl]pyridin-2-yl}-2-methylbenzamide]	0.025 to 0.1
NC(=O)Cc1ccc(-c2cc(Cc3cccc(C(F)(F)F)c3)ccn2)cc1 [Compound 18, 2-[4-(4-{[3-(trifluoromethyl)phenyl]methyl}pyridin-2-yl)phenyl]acetamide]	0.025 to 0.1
NC(=O)C1CCN(c2cc(Cc3cccc(C(F)(F)F)c3)ccn2)CC1 [Compound 41, 1-(4-{[3-(trifluoromethyl)phenyl]methyl}pyridin-2-yl)piperidine-4-carboxamide]	0.025 to 0.1
Cc1cc(-c2cc(Cc3cccc(S(=O)(=O)C(F)(F)F)c3)ccn2)ccc1C(N)=O [Compound 34, 2-methyl-4-{4-[(3-trifluoromethanesulfonylphenyl)methyl]pyridin-2-yl}benzamide hydrochloride]	0.101 to 1
COc1cc(-c2cc(Cc3cc(F)c(F)c(C#N)c3)ccn2)ccc1C(N)=O [Compound 13, 4-{4-[(3-cyano-4,5-difluorophenyl)methyl]pyridin-2-yl}-2-methoxybenzamide]	0.025 to 0.1
Cc1cc(-c2cc(Cc3cc(F)c(F)c(C#N)c3)c(F)cn2)ccc1C(N)=O [Compound 9, 4-{4-[(3-cyano-4,5-difluorophenyl)methyl]-5-fluoropyridin-2-yl}-2-methylbenzamide]	0.025 to 0.1
NC(=O)c1cccc(-c2cc(Cc3cc(F)cc(C(F)(F)F)c3)ccn2)c1 [Compound 17, 3-(4-{[3-fluoro-5-(trifluoromethyl)phenyl]methyl}pyridin-2-yl)benzamide]	0.025 to 0.1
NC(=O)c1ccc(-c2cc(Cc3cc(C(F)(F)F)ccc3F)ccn2)cc1 [Compound 39, 4-(4-{[2-fluoro-5-(trifluoromethyl)phenyl]methyl}pyridin-2-yl)benzamide]	0.101 to 1

Other lines, results leading:

EC50 [µM]	SMILES
< 0.025	N#Cc1cc(Cc2ccnc(-c3ccc(C(N)=O)c(C(F)(F)F)c3)c2)cc(F)c1F [Compound 6, 4-{4-[(3-cyano-4,5-difluorophenyl)methyl]pyridin-2-yl}-2-(trifluoromethyl)benzamide]
0.025 to 0.1	Cc1cc(-c2cc(Cc3cc(F)c(F)c(C#N)c3)ccn2)cc(F)c1C(N)=O [Compound 15, 4-{4-[(3-cyano-4,5-difluorophenyl)methyl]pyridin-2-yl}-2-fluoro-6-methylbenzamide]
0.025 to 0.1	Cc1cc(-c2cc(Cc3cccc(C(F)(F)F)c3)ccn2)ccc1C(=O)NCCO [Compound 36, N-(2-hydroxyethyl)-2-methyl-4-(4-{[3-(trifluoromethyl)phenyl]methyl}pyridin-2-yl)benzamide]
0.025 to 0.1	Cc1cc(-c2cc(Cc3cccc(C(F)(F)F)c3)ccn2)ccc1C(=O)NCCCO [Compound 37, N-(3-hydroxypropyl)-2-methyl-4-(4-{[3-(trifluoromethyl)phenyl]methyl}pyridin-2-yl)benzamide]
0.025 to 0.1	Cc1cc(Cc2ccnc(-c3cccc(C(N)=O)c3)c2)ccc1F [Compound 19, 3-{4-[(4-fluoro-3-methylphenyl)methyl]pyridin-2-yl}benzamide]
< 0.025	Cc1cc(-c2cc(Cc3cccc(C(F)(F)F)c3)ccn2)ccc1C(=O)N1CCNCC1 [Compound 35, 1-[2-methyl-4-(4-{[3-(trifluoromethyl)phenyl]methyl}pyridin-2-yl)benzoyl]piperazine hydrochloride]
0.025 to 0.1	NC(=O)c1ccc(-c2cc(Cc3cc(F)cc(C(F)(F)F)c3)ccn2)cc1 [Compound 14, 4-(4-{[3-fluoro-5-(trifluoromethyl)phenyl]methyl}pyridin-2-yl)benzamide]
0.025 to 0.1	Cc1cc(-c2cc(Cc3cccc(S(C)(=O)=O)c3)ccn2)ccc1C(N)=O [Compound 11, 4-{4-[(3-methanesulfonylphenyl)methyl]pyridin-2-yl}-2-methylbenzamide hydrochloride]
< 0.025	Cc1cc(-c2cc(Cc3cccc(C(F)(F)F)c3)ccn2)ccc1C(N)=O [Compound 1, 2-methyl-4-(4-{[3-(trifluoromethyl)phenyl]methyl}pyridin-2-yl)benzamide]
0.025 to 0.1	Cc1cc(-c2cc(Cc3cc(F)c(F)c(C#N)c3)ccn2)ccc1C(N)=O [Compound 7, 4-{4-[(3-cyano-4,5-difluorophenyl)methyl]pyridin-2-yl}-2-methylbenzamide]
< 0.025	COc1cc(Cc2ccnc(-c3ccc(C(N)=O)c(C)c3)c2)cc(F)c1F [Compound 4, 4-{4-[(3,4-difluoro-5-methoxyphenyl)methyl]pyridin-2-yl}-2-methylbenzamide]
0.025 to 0.1	NC(=O)Cc1cccc(-c2cc(Cc3cccc(C(F)(F)F)c3)ccn2)c1 [Compound 16, 2-[3-(4-{[3-(trifluoromethyl)phenyl]methyl}pyridin-2-yl)phenyl]acetamide]
< 0.025	Cc1cc(-c2cc(Cc3cc(F)c(F)c(Cl)c3)ccn2)ccc1C(N)=O [Compound 2, 4-{4-[(3-chloro-4,5-difluorophenyl)methyl]pyridin-2-yl}-2-methylbenzamide]
< 0.025	Cc1cc(-c2cc(Cc3cc(F)cc(C#N)c3)ccn2)ccc1C(N)=O [Compound 3, 4-{4-[(3-cyano-5-fluorophenyl)methyl]pyridin-2-yl}-2-methylbenzamide]
< 0.025	CSc1cccc(Cc2ccnc(-c3ccc(C(N)=O)c(C)c3)c2)c1 [Compound 5, 2-methyl-4-(4-{[3-(methylsulfanyl)phenyl]methyl}pyridin-2-yl)benzamide]
< 0.025	Cc1cc(-c2cc(Cc3cncc(S(C)(=O)=O)c3)ccn2)ccc1C(N)=O [Compound 44, 4-{4-[(5-methanesulfonylpyridin-3-yl)methyl]pyridin-2-yl}-2-methylbenzamide]
